Source: publication PMC8308784, “Novel Purine Chemotypes with Activity against Plasmodium falciparum and Trypanosoma cruzi” (Pharmaceuticals, 2021)
“And” between values parts separate entries of the source, which are not always exact repeats. Equal values may be shown once. Read-outs that look alike come from different tables or passages of the source.

Assays:
HepG2 cells = assay: HepG2 cell toxicity assay (alamarBlue); format: cell-based, human; details: 2 days; minimum value of the 95% CI, except BNZ (mean (SD))
Protocol: (§1) Human erythrocytes were purified from B+ Rh+ blood samples and maintained at 4 °C in incomplete RPMI medium. Vero (green monkey kidney epithelial cells), LLC-MK2 (Rhesus monkey kidney epithelial cells), and HepG2 (human liver epithelial cells) cultures were cultivated in DMEM supplemented with 1% penicillin–streptomycin (PS) and 10% heat-inactivated fetal bovine serum (FBS) at 37 °C, 5% CO2, and >95% humidity, as described in [31]. HepG2 cells were also supplemented with 10% non-essential amino acids. Vero and MK2 cells were passaged twice per week at 1:12 ratios, while HepG2 cells were passaged at a 1:8 ratio.
(§2) Vero and HepG2 cells were detached, centrifuged, and resuspended in DMEM without phenol red. Cell viability was checked upon cell counting with trypan blue staining. Then, Vero and HepG2 cells were diluted at a concentration of 5 × 10^5 and 3.2 × 10^5 cells per mL, respectively, before adding 100 µL per well to the 96-well plate. Each run contained its own negative (untreated cells) and positive (medium alone) controls. Plates were incubated at 37 °C for 4 days in the case of Vero, or 2 in the case of HepG2 cells. Assay readout was made by adding 50 µL per well of a PBS solution containing 10% alamarBlue reagent (Thermo Fisher Scientific); then, plates were incubated for another 6 h at 37 °C, before recording the fluorescence intensity with a Tecan Infinite M Nano+ reader (excitation: 530 nm, emission: 590 nm).
(§3) Absorbance values derived from the anti-T. cruzi assays and fluorescence values from the anti-P. falciparum and cell toxicity assays were normalized to the controls. In the primary screening at three fixed doses, the compounds’ inhibitory activity was expressed as a percentage of the negative control (100% parasitic growth). In dose–response assays, the compounds’ IC50 and TC50 values were determined with GraphPad Prism 7 software (version 7.00, 2016), using a non-linear regression analysis model defined by the following equation: Y=100 ÷(1+10^((LogIC50−X)×HillSlope))

Vero cells = assay: Vero cell toxicity assay (alamarBlue); format: cell-based, green monkey; details: 4 days; minimum value of the 95% CI, except BNZ (mean (SD))
Protocol: as §1, §2, §3

[1] = tested on: T. cruzi Tulahuen strain expressing β-galactosidase; assay: anti-T. cruzi dose-response growth inhibition assay (Vero cells plus trypomastigotes, CPRG readout); format: cell-based; details: Vero cells plus trypomastigotes, MOI 1, four days, mean (SD), read-out: T. cruzi IC50 a (anti-T. cruzi assay)
Protocol: T. cruzi parasites from the Tulahuen strain (discrete typing unit (DTU) VI) expressing β-galactosidase were maintained in culture by the infection of LLC-MK2 cells in DMEM supplemented with 2% FBS and 1% penicillin–streptomycin–glutamine (PSG), as described in [52]. When free-swimming trypomastigotes were released to the culture medium, they were centrifuged for 7 min at 2500 rpm and allowed to swim out of the pellet. Trypomastigotes were used to maintain the parasite cycle, or for the performance of the antiparasitic assays.
T. cruzi growth was primarily analyzed under three different concentrations ([…]) of the 81 compounds. Conditions were tested in triplicate for every concentration. Z-values varied between 0.81 and 0.92 in the different plates analyzed. Selected compounds (34.6% potential hit rate) were further analyzed via standard growth inhibition assays. The Z-values of dose–response assays correlated with those previously reported. For both assays, Vero cells and trypomastigotes from the Tulahuen T. cruzi strain expressing β-galactosidase were harvested, centrifuged, and resuspended in DMEM without phenol red supplemented with 1% PSG, 2% FBS, 1 mM sodium pyruvate, and 25 mM HEPES. Vero cells and trypomastigotes were counted, diluted at a concentration of 1 × 10^6 cells/mL each, and mixed 1:1 (v/v). Then, 100 μL of that mixture was added per well to the plates already containing the compounds. Each well contained 50,000 host cells and 50,000 parasites, i.e., multiplicity of infection (MOI) = 1. BNZ was used as control of maximal drug growth inhibition in each round, whereas each plate contained its own negative control (maximum parasite growth; Vero cells plus parasites without drugs) and positive control (minimum parasite growth; trypomastigote forms alone marking an enzymatic zero time or baseline galactosidase activity). After four days at 37 °C, 50 µL of a PBS solution containing 0.25% NP40 and 500 µM chlorophenol red-β-D-galactopyranoside (CPRG) substrate were added per well [32]. Plates were incubated at 37 °C for 4 h, and their absorbance read out at 590 nm using an Epoch Gene5 spectrophotometer.
as §3

[2] = tested on: T. cruzi intracellular amastigotes; assay: Antiamastigote growth inhibition assay; format: cell-based; details: intracellular amastigotes in Vero cells, mean (SD), read-out: T. cruzi IC50 b (antiamastigote assay)
Protocol: Vero cells were seeded in T-175 flasks (5 × 10^6 cells per flask) in DMEM supplemented with 1% penicillin–streptomycin and 10% FBS, and cultured for 24 h. Then, cells were washed once with PBS, and free-swimming trypomastigotes (1 × 10^7 trypomastigotes per flask; MOI = 1) in assay medium were added and allowed 18 h to infect. After that, infected cell monolayers were washed with PBS and detached. Cells were counted and diluted to a concentration of 5 × 10^5 cells per mL, before adding 100 µL per well to test plates already containing the drugs dispensed as described above. In all cases, we included BNZ as control drug, and each plate contained its own negative (Vero cells and parasites) and positive (Vero cells) controls.
as §3

P. falciparum 3D7 = assay: P. falciparum primary screening at three fixed concentrations; format: cell-based; details: average of at least three experiments
Protocol: Apicomplexan parasite cultures were maintained at 3% hematocrit under an atmosphere of 37 °C in 93% N2, 5% CO2, and 2% O2, following standard methods. Synchronized cultures were obtained via 5% sorbitol lysis.
[…] Conditions were tested in triplicate for every concentration, and the test was repeated when the standard deviation was above 10% for any concentration. Z-values varied between 0.83 and 0.98 in the different plates analyzed. Selected compounds (12.3% potential hit rate) were further analyzed via standard growth inhibition assays, carried out as previously described in [54]. Briefly, parasitemia was adjusted to 1–1.3%, with >90% rings after sorbitol synchronization. Two hundred microliters of parasite culture were plated in 96-well microplates and incubated for 48 h at 37 °C in the presence of decreasing concentrations of the tested compounds, in triplicate. Parasitemia was determined by fluorescence-assisted cell sorting (FACS). Non-infected RBCs and samples containing parasitized RBCs (including controls with DMSO as carrier solvent) were diluted in PBS to a final concentration of ~1–10 × 10^6 cells/mL. The cell suspension was stained with SYTO 11 (0.5 mM stock in DMSO, Thermo Fisher Scientific, Waltham, MA, USA), to a final concentration of 0.5 μM. Samples were analyzed in a Becton Dickinson FACSCalibur. Sample excitation was carried out using a 488-nm, air-cooled argon-ion laser at a power of 15 mW, using forward and side scatter to gate the RBC population, and SYTO 11 green fluorescence (530 nm, FITC filter) was collected in a logarithmic scale. The single-cell population was selected on a forward–side scattergram, and the green fluorescence from this population was analyzed. Parasitemia was expressed as the number of parasitized cells per 100 erythrocytes.
as §3

Question: How did the “HepG2 Cells TC50” value (HepG2 cells) turn out when `O=C(Cn1ccnc1[N+](=O)[O-])NCc1ccccc1` [BNZ, benznidazole, reference compound] was run?
Answer: The value was 255.3 (10.8) µM and 255.3 µM.

Question: And the “Vero Cells TC50” value (Vero cells)?
Answer: The value was 209.5 (15.0) µM and 209.5 µM.

Question: And the IC50 ([1]; Trypanosoma cruzi, TULAHUEN, 96 h)?
Answer: The IC50 was 1.72 µM.

Question: What about the IC50 ([2]; Trypanosoma cruzi) of the same compound?
Answer: Its IC50 is 1.82 µM.

Question: For `CN1CCN(n2cnc3c(OCc4ccccc4)ncnc32)CC1` [Compound 29], which “HepG2 Cells TC50” value (HepG2 cells) is on record?
Answer: The value was over 1000 µM.

Question: And the “Vero Cells TC50” value (Vero cells)?
Answer: Its value is over 1000 µM.

Question: What about the “Primary screening, parasite growth relative to the negative control” value (P. falciparum 3D7; compound at 1 µM) of the same compound?
Answer: Its value is 100.58%.

Question: And the “Primary screening, parasite growth relative to the negative control” value (P. falciparum 3D7; compound at 10 µM)?
Answer: The value was 98.35%.

Question: And the “Primary screening, parasite growth relative to the negative control” value (P. falciparum 3D7; compound at 100 µM)?
Answer: The value was 63.21%.

Question: What about the IC50 [1] of the same compound?
Answer: Its IC50 is 4.86 µM.

Question: And the IC50 [2]?
Answer: Its IC50 is 157 µM.
